Measured values reported in patent publication US20230365571A1, “COMPOUNDS AND COMPOSITIONS AS Sppl2a INHIBITORS” (Novartis AG, priority 2020, published 2023).

Assays:
human SPPL2a [1] = target: T1, human SPPL2a (Homo sapiens, UniProt Q8TCT8); test: Sppl2a TL (translocation) imaging assay in U-2 OS cells; assay type: cell-based; set-up: expressed in transfected cells; details: U-2 OS cells expressing human SPPL2a and EGFP-TNFα(aa1-76) NTF substrate; 24 h
T1 sequence (Q8TCT8 26-520): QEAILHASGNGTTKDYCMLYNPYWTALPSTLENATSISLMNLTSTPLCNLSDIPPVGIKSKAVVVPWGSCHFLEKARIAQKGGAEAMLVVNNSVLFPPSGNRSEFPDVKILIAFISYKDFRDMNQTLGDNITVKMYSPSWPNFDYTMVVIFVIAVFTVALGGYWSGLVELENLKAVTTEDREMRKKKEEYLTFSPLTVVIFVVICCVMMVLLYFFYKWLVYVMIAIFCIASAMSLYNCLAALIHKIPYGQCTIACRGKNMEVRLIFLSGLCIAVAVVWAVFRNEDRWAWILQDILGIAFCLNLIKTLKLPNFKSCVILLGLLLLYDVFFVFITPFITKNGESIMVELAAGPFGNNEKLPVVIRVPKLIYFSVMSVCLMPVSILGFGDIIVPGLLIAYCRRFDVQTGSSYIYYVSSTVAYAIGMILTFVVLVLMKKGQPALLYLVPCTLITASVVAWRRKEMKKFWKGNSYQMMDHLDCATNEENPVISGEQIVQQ
Description: SPPL2a, TL in U-2 OS Cells. Stable U-2 OS cell lines expressing human SPPL2a constitutively and a EGFP-labeled TNFα(aa1-76) NTF substrate under a doxycycline-regulated promoter were used for the imaging assays. Cells were seeded at 3000 cells/30 μL/384-well in DMEM/GlutaMax™-I (Invitrogen) supplemented with tetracycline-free 10% FBS (Amimed) and incubated at 37° C., 5% CO2 for 3-4 h. Subsequently, 3.3 μL of inhibitors, prediluted in doxycycline-containing medium for 11-point concentration-response curves, were added to each well using a CyBi well liquid handling device (Cybio AG, Jena, Germany) to result in final inhibitor concentrations ranging from 100 μM to 1 nM (final DMSO concentration 0.9% (v/v)) and 5 μg/mL doxycycline). The cells were incubated with inhibitor at 37° C., 5% CO2 for 24 h. Thereafter cell were fixed in 4% PFA/PBS and in parallel, nuclei were stained with Hoechst (Invitrogen) 1:5000 in PBS for 30 min. The plates were imaged using a Cellomics ArrayScan VTI HCS reader with 10×/0.3NA objective (Thermo Fisher Scientific, USA). Six images per well were acquired. Images for the EGFP signal (Ex395, Em509) and the Hoechst nuclear dye (Ex350, Em425) were acquired simultaneously with image analysis using the “Nuclear Translocation” assay algorithm of the Cellomics ArrayScan software. Nuclei were detected based on the Hoechst staining, the nuclear mask was transferred to the EGFP channel, and a 4 pixel wide cytoplasm ring region was defined around the nucleus. The intensity of the EGFP signal was measured both in the nuclear and in the cytoplasm ring region of each individual cell (in general 800-1000 individual cells were analyzed per well), and the difference of the average nuclear versus average cytoplasmic intensity of the EGFP signal was calculated (“CircRingAvgIntenDiffCh2”=“CircAvgIntenCh2”−“RingAvgIntenCh2”). Additionally the number of cells were acquired (feature termed “ValidCellCount”) and used to calculate cell toxicity (CC50). Percent inhibition was calculated relative to the positive (0.5 μM LY-411,575=100% inhibition) and negative (DMSO=0% inhibition) controls. The IC50 value was calculated from the plot of percentage of inhibition vs inhibitor concentration using nonlinear regression analysis software, e.g., Origin (OriginLab Corp.).

human SPPL2a [2] = target: T1, human SPPL2a; test: Sppl2a RGA (reporter gene assay) in HEK293 cells; assay type: cell-based; set-up: expressed in transfected cells; host or cells: HEK293 (transient); details: NT-TNF-VP16-Gal4 substrate, Gal4-luciferase reporter, 24 h
From the text: Sppl2a RGA (Reporter Gene Assay):
Sppl2a is an intramembrane aspartyl protease with similarities to presenilin, the active subunit of the γ-secretase complex. The assay is based on the coupling of the proteolytic degradation of a membrane bound synthetic substrate (VP16-Gal4 fusion protein with the N-terminal domain of TNF alpha), which migrates to the nucleus upon cleavage, with the Gal4 driven expression of luciferase. Inhibition of Sppl2a results in a reduction of nuclear VP16-Gal4 activator and therefore in a reduction of the production of luciferase. The luciferase dependent-luminescence is plotted against the concentrations of compound to generate a dose response curve, which allows the calculation of the IC50 value.
DNA vectors encoding human Sppl2a, NT-TNF-VP16-Gal4 and a Gal4-luciferase reporter were transiently transfected in HEK293 cells. In a typical experiment 5 μg plasmid for SPPL2a, 10 μg plasmid encoding the reporter Gal4-luciferase and 20 μg plasmid encoding the substrate NT-TF-VP16-Gal4 were mixed together. The DNA mixture was combined with 107 μl FuGENE® (Promega), 735 μl Opti-MEM® (Life Technologies) and incubated for 5 minutes at RT. To this mixture 20 mL of concentrated HEK293 cells were added and thoroughly mixed. The cell suspension was distributed to a white solid 384 well plate. Within 5 hours, 50 nl of compound in DMSO was stamped into the wells via pintool. The plate was incubated for 24 h at 37° C., 5% CO2 in a humidified incubator, before the addition of 25 μl Bright Glo. After incubation at RT for 5 min, the plate was transferred to a luminometer and the luminescence was measured. The IC50 was determined by plotting compound concentration vs. normalized luminescence values.

Row | Structure (SMILES) | IC50 (human SPPL2a [1]) [nM] | IC50 (human SPPL2a [2]) [nM]
1 | CC[C@H](CNC(=O)c1sc(-c2ccc(OC)nc2)nc1Cl)C(=O)N[C@@H]1C(=O)N2CCCN2C(=O)c2ccccc21 [Example 34, 4-Chloro-N-((R)-2-(((S)-5,11-dioxo-2,3,10,11-tetrahydro-1H,5H-benzo[d]pyrazolo [1,2-a][1,2]diazepin-10-yl)carbamoyl)butyl)-2-(6-methoxypyridin-3-yl)thiazole-5-carboxamide] | 43 | 50
2 | Cc1nc(Cc2ccccc2)sc1C(=O)NC[C@@H](C)C(=O)N[C@@H]1C(=O)N2CCCN2Cc2ccccc21 [Example 58, 2-Benzyl-4-methyl-N-((R)-2-methyl-3-oxo-3-(((S)-11-oxo-2,3,10,11-tetrahydro-1H,5H-benzo[d]pyrazolo [1,2-a][1,2]diazepin-10-yl)amino)propyl) thiazole-5-carboxamide] | 373 | 194
3 | CC[C@H](CNC(=O)c1c(C)noc1C(F)(F)F)C(=O)N[C@@H]1C(=O)N2CC3(CC3)CN2C(=O)c2ccccc21 [Example 31, N-((R)-2-(((S)-5,11-Dioxo-10,11-dihydro-1H,3H,5H-spiro[benzo[d]pyr-azolo[1,2-a][1,2]diazepine-2,1′-cyclopropan]-10-yl)carbamoyl)butyl)-3-methyl-5-(trifluoromethyl) isoxazole-4-carboxamide] | 33 | 22
4 | C[C@H](Cc1nc2c(Cl)cccc2[nH]1)C(=O)N[C@@H]1C(=O)N2CCCN2Cc2ccccc21 [Example 115, (R)-3-(4-chloro-1H-benzo[d]imidazol-2-yl)-2-methyl-N-((S)-11-oxo-2,3,10,11-tetrahydro-1H,5H-benzo[d]pyrazolo[1,2-a][1,2]diazepin-10-yl)propanamide] | 3970 | 228
5 | Cc1cc(F)cc2nc(C[C@@H](C)C(=O)N[C@@H]3C(=O)N4CCCN4Cc4ccccc43)[nH]c12 [Example 117, (R)-3-(5-fluoro-7-methyl-1H-benzo[d]imidazol-2-yl)-2-methyl-N-((S)-11-oxo-2,3,10,11-tetrahydro-1H,5H-benzo[d]pyrazolo[1,2-a][1,2]diazepin-10-yl)propanamide] | 140 | 21
6 | C[C@H](Cc1nc2ccccc2[nH]1)C(=O)N[C@@H]1C(=O)N2CCCN2Cc2ccccc21 [Example 111, (R)-3-(1H-benzo[d]imidazol-2-yl)-2-methyl-N—((S)-11-oxo-2,3,10,11-tetrahydro-1H,5H-benzo[d]pyrazolo[1,2-a][1,2]diazepin-10-yl)propanamide] | 666 | 77
7 | CC[C@H](CNC(=O)c1scnc1Cl)C(=O)N[C@@H]1C(=O)N2CC3(CC3)CN2C(=O)c2ccccc21 [Example 49, 4-Chloro-N-((R)-2-(((S)-5,11-dioxo-10,11-dihydro-1H,3H,5H-spiro [benzo[d]pyr-azolo[1,2-a][1,2]diazepine-2,1″-cyclopropan]-10-yl)carbamoyl)butyl) thiazole-5-carboxamide] | 91 | 89

Further lines, results first:

Row | IC50 (human SPPL2a [1]) [nM] | IC50 (human SPPL2a [2]) [nM] | Structure (SMILES)
8 | 4 | 9 | C[C@H](CC(=O)Nc1cc(-c2ccc(C(F)(F)F)nc2)nn1C)C(=O)N[C@@H]1C(=O)N2CCCN2Cc2ccccc21 [Example 72, (R)-2-Methyl-N^4-(1-methyl-3-(6-(trifluoromethyl)pyridin-3-yl)-1H-pyrazol-5-yl)-N^1-((S)-11-oxo-2,3,10,11-tetrahydro-1H,5H-benzo[d]pyrazolo [1,2-a][1,2]diazepin-10-yl)succinamide]
9 | 10 | 7 | C[C@H](CC(=O)Nc1cn(-c2ccc(C(F)(F)F)nc2)nc1Cl)C(=O)N[C@@H]1C(=O)N2CCCN2Cc2ccccc21 [Example 88, (R)-N^4-(3-Chloro-1-(6-(trifluoromethyl)pyridin-3-yl)-1H-pyrazol-4-yl)-2-methyl-N^1-((S)-11-oxo-2,3,10,11-tetrahydro-1H,5H-benzo[d]pyrazolo [1,2-a][1,2]diazepin-10-yl)succinamide]
10 | 9 | 6 | CCn1nc(-c2ccc(C(F)(F)F)nc2)cc1NC(=O)C[C@@H](C)C(=O)N[C@@H]1C(=O)N2CCCN2Cc2ccccc21 [Example 83, (R)-N^4-(1-Ethyl-3-(6-(trifluoromethyl)pyridin-3-yl)-1H-pyrazol-5-yl)-2-methyl-N^1-((S)-11-oxo-2,3,10,11-tetrahydro-1H,5H-benzo[d]pyrazolo [1,2-a][1,2]diazepin-10-yl)succinamide]
11 | 15 | 20 | Cc1cccc(C)c1NC(=O)c1cc(NC(=O)C[C@@H](C)C(=O)N[C@@H]2C(=O)N3CCCN3Cc3ccccc32)n(C)n1 [Example 110]
12 | 11 | 8 | CC[C@H](CNC(=O)c1sc(-c2ccc(C(F)(F)F)nc2)nc1Cl)C(=O)N[C@@H]1C(=O)N2CCCN2Cc2ccccc21 [Example 15, 4-Chloro-N-((R)-2-(((S)-11-oxo-2,3,10,11-tetrahydro-1H,5H-benzo[d]pyrazolo [1,2-a][1,2]diazepin-10-yl)carbamoyl)butyl)-2-(6-(trifluoromethyl)pyridin-3-yl)thiazole-5-carboxamide]
13 | 4 | 4 | C[C@H](CC(=O)Nc1cc(-c2cc(C3CC3)no2)nn1C)C(=O)N[C@@H]1C(=O)N2CCCN2Cc2ccccc21 [Example 71, (R)-N^4-(3-(3-Cyclopropylisoxa-zol-5-yl)-1-methyl-1H-pyrazol-5-yl)-2-methyl-N^1-((S)-11-oxo-2,3,10,11-tetrahydro-1H,5H-benzo[d]pyrazolo [1,2-a][1,2]diazepin-10-yl)succinamide]
14 | 4 | 13 | C[C@H](CC(=O)Nc1cc(NC(=O)C(F)(F)C(F)(F)F)nn1C)C(=O)N[C@@H]1C(=O)N2CCCN2Cc2ccccc21 [Example 70, (R)-2-Methyl-N^4-(1-methyl-3-(2,2,3,3,3-pentafluoropro-panamido)-1H-pyrazol-5-yl)-N^1-((S)-11-oxo-2,3,10,11-tetrahydro-1H,5H-benzo[d]pyrazolo [1,2-a][1,2]diazepin-10-yl)succinamide]
15 | 10 | 10 | C[C@H](CC(=O)Nc1cc(-c2ccc(F)cn2)nn1C)C(=O)N[C@@H]1C(=O)N2CCCN2Cc2ccccc21 [Example 87, (R)-N^4-(3-(5-Fluoropyridin-2-yl)-1-methyl-1H-pyrazol-5-yl)-2-methyl-N^1-((S)-11-oxo-2,3,10,11-tetrahydro-1H,5H-benzo[d]pyrazolo [1,2-a][1,2]diazepin-10-yl)succinamide]
